Data reported in patent US20130303535A1, “NOVEL BICYCLIC HETEROCYCLIC COMPOUND” (priority 2008, published 2013).

Target: TTX resistant Na channel of human SNS-expressing cell (SNS) (Homo sapiens, UniProt Q9Y5Y9)
Test: cell-based
Settings: CHO-K1, compound concentration 12.5 μM; read-out: SNS inhibitory rate (%)

Chain of TTX resistant Na channel of human SNS-expressing cell (SNS) (Q9Y5Y9 whole entry, looked up): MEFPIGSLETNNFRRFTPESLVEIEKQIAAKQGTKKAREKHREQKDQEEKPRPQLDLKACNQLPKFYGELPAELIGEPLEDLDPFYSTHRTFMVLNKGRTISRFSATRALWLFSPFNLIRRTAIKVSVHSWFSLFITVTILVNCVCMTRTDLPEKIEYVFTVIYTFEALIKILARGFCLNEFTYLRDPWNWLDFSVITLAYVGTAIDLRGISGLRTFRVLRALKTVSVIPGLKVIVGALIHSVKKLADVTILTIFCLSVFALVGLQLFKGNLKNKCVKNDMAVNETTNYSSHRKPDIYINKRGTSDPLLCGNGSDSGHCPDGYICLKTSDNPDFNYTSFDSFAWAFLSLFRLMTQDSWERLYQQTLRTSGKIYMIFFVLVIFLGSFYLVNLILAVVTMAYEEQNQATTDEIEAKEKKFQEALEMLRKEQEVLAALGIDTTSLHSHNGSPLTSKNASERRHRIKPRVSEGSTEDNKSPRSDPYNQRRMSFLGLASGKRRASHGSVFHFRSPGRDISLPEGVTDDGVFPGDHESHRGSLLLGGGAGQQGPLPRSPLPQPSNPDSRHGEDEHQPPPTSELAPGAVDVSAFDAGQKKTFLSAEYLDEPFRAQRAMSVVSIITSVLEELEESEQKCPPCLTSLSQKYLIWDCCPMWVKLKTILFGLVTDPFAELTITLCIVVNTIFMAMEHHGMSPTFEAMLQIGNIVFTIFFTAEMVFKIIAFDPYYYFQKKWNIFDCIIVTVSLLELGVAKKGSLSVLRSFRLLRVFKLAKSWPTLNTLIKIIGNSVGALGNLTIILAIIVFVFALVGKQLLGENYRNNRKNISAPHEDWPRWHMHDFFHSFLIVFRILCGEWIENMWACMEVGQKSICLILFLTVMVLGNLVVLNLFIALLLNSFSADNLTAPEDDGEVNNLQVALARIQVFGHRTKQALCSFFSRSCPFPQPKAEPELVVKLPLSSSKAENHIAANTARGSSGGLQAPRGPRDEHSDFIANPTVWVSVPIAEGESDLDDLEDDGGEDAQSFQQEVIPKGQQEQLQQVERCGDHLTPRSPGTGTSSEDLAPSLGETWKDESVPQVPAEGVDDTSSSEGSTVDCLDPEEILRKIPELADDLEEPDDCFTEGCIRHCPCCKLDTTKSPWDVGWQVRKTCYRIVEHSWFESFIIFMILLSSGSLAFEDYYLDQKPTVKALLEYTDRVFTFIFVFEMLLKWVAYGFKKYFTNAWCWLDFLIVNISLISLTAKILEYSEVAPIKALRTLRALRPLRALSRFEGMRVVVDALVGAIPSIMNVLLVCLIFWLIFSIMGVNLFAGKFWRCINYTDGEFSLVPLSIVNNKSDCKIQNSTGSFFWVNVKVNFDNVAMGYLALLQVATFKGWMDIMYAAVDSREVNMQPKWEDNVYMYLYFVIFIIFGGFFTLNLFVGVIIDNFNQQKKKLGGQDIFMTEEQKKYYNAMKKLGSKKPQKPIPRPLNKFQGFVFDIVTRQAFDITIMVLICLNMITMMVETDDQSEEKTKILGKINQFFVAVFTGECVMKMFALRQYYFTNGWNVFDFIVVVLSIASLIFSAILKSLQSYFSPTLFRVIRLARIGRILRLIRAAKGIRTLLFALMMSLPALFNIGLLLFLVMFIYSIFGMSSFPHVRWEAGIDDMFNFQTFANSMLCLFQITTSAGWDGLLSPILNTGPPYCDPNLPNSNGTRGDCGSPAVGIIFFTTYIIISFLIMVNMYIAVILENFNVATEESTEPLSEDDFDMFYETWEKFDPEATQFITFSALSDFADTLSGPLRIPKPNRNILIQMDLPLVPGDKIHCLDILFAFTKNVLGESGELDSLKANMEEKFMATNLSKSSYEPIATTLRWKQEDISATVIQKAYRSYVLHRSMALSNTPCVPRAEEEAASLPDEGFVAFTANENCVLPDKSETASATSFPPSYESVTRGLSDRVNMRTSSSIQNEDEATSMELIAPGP

Row | SMILES | inhibition at 12.5 µM [%]
1 | CCOCCn1c(CN[C@@H](C)C(N)=O)nc2ccc(OCc3ccc(F)cc3)cc21 [Example 78, N^2-({1-(2-ethoxyethyl)-6-[(4-fluorobenzyl)oxy]-1H-benzimidazol-2-yl}methyl)-L-alaninamide] | 22.2
2 | CCOCCn1c(CNC(C)(C)C(N)=O)nc2ccc(-c3ccc(F)cc3Cl)cc21 [Example 156] | 71.2
3 | CC(C)OCCn1c(CN[C@@H](C)C(N)=O)nc2ccc(Oc3ccc(F)cc3)cc21 [Example 62] | 93.8
4 | CCn1c(CN[C@@H](C)C(N)=O)nc2ccc(Oc3ccc(F)c(F)c3)cc21 [Example 97] | 82.4
5 | CCOCCn1c(CN[C@@H](C)C(=O)N2CCNC(=O)C2)nc2ccc(Oc3ccc(F)cc3)cc21 [Example 106] | 86.4
6 | CCOCCn1c(CN[C@@H](C)C(=O)N2CCOCC2)nc2ccc(Oc3ccc(F)cc3)cc21 [Example 90] | 96.1
7 | C[C@H](NCc1nc2ccc(Oc3ccc(F)cc3)cc2n1C1CC1)C(N)=O [Example 7] | 83.1
8 | CCn1c(CN[C@@H](C)C(N)=O)nc2cc(F)c(-c3ccc(F)cc3)cc21 [Example 111, N^2-{[1-ethyl-5-fluoro-6-(4-fluorophenyl)-1H-benzimidazol-2-yl]methyl}-L-alaninamide] | 88.4
9 | CCn1c(CN[C@@H](C)C(N)=O)nc2ccc(Oc3ccc(F)cc3)cc21 [Example 139] | 96
10 | CCOCCn1c(CN[C@@H](C)C(=O)N2CCNC(C#N)C2)nc2ccc(Oc3ccc(F)cc3)cc21 (stereo partly drawn) [Example 107] | 83.7
11 | CCOCCn1c(CN[C@@H](C)C(N)=O)nc2ccc(-c3c(C)cc(C)cc3C)cc21 [Example 164] | 3.7
12 | CCOCCn1c(CN[C@@H](C)C(N)=O)nc2cc(Cl)c(-c3ccc(C(F)(F)F)cc3)cc21 [Example 182] | 0
13 | CCOCCn1c(CN[C@@H](C)C(N)=O)nc2ccc(Oc3ccc(C)cc3)cc21 [Example 42] | 76.7
14 | CCOCCn1c(CN[C@@H](C)C(N)=O)nc2ccc(-c3ccc(F)cc3F)cc21 [Example 147] | 23.5
15 | CCOCCn1c(CN[C@@H](C)C(N)=O)nc2cc(Cl)c(-c3ccc(F)c(F)c3)cc21 [Example 180] | 4.5
16 | CCOCCn1c(CNC(C)(C)C(N)=O)nc2ccc(-c3ccc(C)c(C)c3)cc21 [Example 162] | 67.3
17 | CCOCCn1c(CN[C@@H](C)C(=O)NCCN2CCOCC2)nc2ccc(Oc3ccc(F)cc3)cc21 [Example 89] | 83
18 | CCOCCn1c(CN(C)CC(N)=O)nc2ccc(Oc3ccccc3)cc21 [Example 40] | 95.8
